These results are taken from patent US12590099B2, “Inhibitors of histone deacetylase useful for the treatment or prevention of HIV infection” (Merck Sharp & Dohme LLC, priority 2018, dated 2026).

Where only a bound is given, the exact number is not on record here.

One assay deals with T1, Recombinant human HDAC1 (Homo sapiens, UniProt Q13547).
T1 construct: FLAG (C); made in house
The assay can be described thus: Human HDAC enzyme inhibitor Fluor-de-Lys assay, HDAC1. It counts as biochemical. As to conditions: recombinant human HDAC1, Fluor-de-Lys assay. An outline of the steps:
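Fluor-de-Lys format at room temperature (23° C.): compounds titrated 10-point, 1:3, preincubated with HDAC before substrate addition; HDAC1 run at 0.3 nM enzyme with 20 μM BML-KI104. Developer with excess HDAC inhibitor ends the reaction, and trypsin-liberated AMC fluorescence is the read-out.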

A further assay deals with T2, HDAC6 (Homo sapiens, UniProt Q9UBN7).
T2 sequence (Q9UBN7 1-1215): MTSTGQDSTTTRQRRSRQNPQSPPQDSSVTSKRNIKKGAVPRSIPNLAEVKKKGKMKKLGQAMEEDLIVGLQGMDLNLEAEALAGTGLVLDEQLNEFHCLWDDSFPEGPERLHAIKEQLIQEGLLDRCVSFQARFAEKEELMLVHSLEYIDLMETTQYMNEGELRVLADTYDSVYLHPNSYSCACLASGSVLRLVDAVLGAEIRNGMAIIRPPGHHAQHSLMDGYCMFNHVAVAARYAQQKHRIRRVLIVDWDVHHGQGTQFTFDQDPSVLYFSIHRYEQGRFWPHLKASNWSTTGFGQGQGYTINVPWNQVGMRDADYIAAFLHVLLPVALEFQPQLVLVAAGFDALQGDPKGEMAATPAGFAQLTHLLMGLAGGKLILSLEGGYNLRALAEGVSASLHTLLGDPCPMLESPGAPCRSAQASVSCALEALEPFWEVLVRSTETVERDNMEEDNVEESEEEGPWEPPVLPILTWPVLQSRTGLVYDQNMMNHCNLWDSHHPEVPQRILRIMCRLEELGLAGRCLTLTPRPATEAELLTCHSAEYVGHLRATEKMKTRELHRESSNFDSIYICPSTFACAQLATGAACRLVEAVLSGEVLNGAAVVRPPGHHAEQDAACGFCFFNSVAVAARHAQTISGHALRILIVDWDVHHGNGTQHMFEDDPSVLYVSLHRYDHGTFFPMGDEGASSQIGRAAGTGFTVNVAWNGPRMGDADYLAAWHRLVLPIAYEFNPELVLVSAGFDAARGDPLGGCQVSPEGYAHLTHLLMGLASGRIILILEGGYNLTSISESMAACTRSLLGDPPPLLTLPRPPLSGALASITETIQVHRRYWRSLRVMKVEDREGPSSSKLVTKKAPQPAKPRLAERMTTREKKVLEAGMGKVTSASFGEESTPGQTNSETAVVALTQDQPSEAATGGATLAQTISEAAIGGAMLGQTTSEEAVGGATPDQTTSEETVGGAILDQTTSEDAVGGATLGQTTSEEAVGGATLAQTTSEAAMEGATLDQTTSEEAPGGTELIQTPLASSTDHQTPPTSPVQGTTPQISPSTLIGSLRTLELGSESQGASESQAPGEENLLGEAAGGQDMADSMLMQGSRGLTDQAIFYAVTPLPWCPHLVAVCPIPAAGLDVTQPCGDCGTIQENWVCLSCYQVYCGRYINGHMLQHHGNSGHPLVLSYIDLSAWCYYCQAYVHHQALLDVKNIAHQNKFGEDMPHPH
The assay can be described thus: Human HDAC enzyme inhibitor Fluor-de-Lys assay, HDAC6. Format: biochemical. The conditions noted are these: HDAC6, Fluor-de-Lys assay.

T1 sequence (Q13547 whole entry): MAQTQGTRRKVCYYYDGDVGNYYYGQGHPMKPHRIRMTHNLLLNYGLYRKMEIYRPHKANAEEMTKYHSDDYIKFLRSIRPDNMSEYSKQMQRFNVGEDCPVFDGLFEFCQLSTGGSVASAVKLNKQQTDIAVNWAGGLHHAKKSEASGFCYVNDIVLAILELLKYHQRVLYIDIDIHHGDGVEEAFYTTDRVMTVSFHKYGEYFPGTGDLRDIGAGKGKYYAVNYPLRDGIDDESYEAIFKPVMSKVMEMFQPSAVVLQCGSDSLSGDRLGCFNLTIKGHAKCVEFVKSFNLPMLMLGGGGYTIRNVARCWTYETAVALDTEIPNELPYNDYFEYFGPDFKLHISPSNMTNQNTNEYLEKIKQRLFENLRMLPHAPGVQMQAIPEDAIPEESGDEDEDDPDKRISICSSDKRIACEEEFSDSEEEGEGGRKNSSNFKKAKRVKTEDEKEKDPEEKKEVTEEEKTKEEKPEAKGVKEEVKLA

As a reminder, the IC50 is the midpoint of a concentration-inhibition curve. Regarding `CCC(=O)CCCCC[C@H](NC(=O)C1CC12CCOCC2)c1ncc(-c2cc3ccc(C)nc3cc2OC)[nH]1` (single isomer, unassigned) [Compound 407], the IC50 on Recombinant human HDAC1 was 0.9 nM; at HDAC6, above 900 nM.

For the molecule `CCC(=O)CCCCC[C@H](NC(=O)C1CC12CCOCC2)c1ncc(-c2cc3ccc(C)nc3cc2OC)o1` (single isomer, unassigned) [Compound 409], the IC50 was 10.5 nM at Recombinant human HDAC1 and above 900 nM against HDAC6.

Consider `CCC(=O)CCCCC[C@H](NC(=O)C1CC12CCOCC2)c1ncc(-c2cc3ccc(C)nc3cc2OC)o1` (single isomer, unassigned) [Compound 410], for which the 50% inhibitory concentration (IC50) on Recombinant human HDAC1 is 17.5 nM; at HDAC6, above 900 nM.

On to `CCC(=O)CCCCC[C@H](NC(=O)C1CC12CCOCC2)c1ncc(-c2cc3ccc(C)nc3cc2OC)[nH]1` (single isomer, unassigned) [Compound 413], for which the half-inhibitory concentration (IC50) was 16.2 nM on Recombinant human HDAC1 and above 900 nM on HDAC6.

Regarding `CCC(=O)CCCCCC(NC(=O)C1CCC2(CC1)OC(=O)c1ncccc12)c1nnc(-c2cc3ccccc3nc2OC)o1` (stereo not drawn) [Compound 365], the results for the IC50 at Recombinant human HDAC1 and against HDAC6 were 61.2 nM and 1940 nM, respectively.

Consider `CCC(=O)CCCCC[C@H](NC(=O)[C@H]1CC[C@@]2(CC1)OC(=O)c1cccnc12)c1nnc(-c2cc3ccccc3nc2OC)o1` [Compound 366], for which the concentration for half-maximal inhibition (IC50) amounted to 89.4 nM at Recombinant human HDAC1 and 2760 nM against HDAC6.

Regarding `CCC(=O)CCCCC[C@H](NC(=O)[C@H]1CC[C@]2(CC1)OC(=O)c1ncccc12)c1nnc(-c2cc3ccccc3nc2OC)o1` [Compound 367], the IC50 amounted to 25.9 nM on Recombinant human HDAC1 and 2110 nM on HDAC6.

For `CCC(=O)CCCCC[C@H](NC(=O)[C@H]1CC[C@]2(CC1)OC(=O)c1cccnc12)c1nnc(-c2cc3ccccc3nc2OC)o1` [Compound 368], the IC50 on Recombinant human HDAC1 was 50.5 nM; at HDAC6, 2380 nM.

As for `CCC(=O)CCCCC[C@H](NC(=O)C1=NOC2(CCN(C(C)C)CC2)C1)c1nnc(-c2cc3ccccc3nc2OC)o1` [Compound 369], the half-maximal inhibitory concentration (IC50) was 18.5 nM on Recombinant human HDAC1 and 2500 nM against HDAC6.

For the molecule `CCC(=O)CCCCC[C@H](NC(=O)C1=NOC2(CCN(C)CC2)C1)c1nnc(-c2cc3ccccc3nc2OC)o1` [Compound 370], the concentration for half-maximal inhibition (IC50) was found to be 10.8 nM on Recombinant human HDAC1 and 1740 nM at HDAC6.

In the case of `CCC(=O)CCCCC[C@H](NC(=O)C1=NOC2(CCN(S(C)(=O)=O)CC2)C1)c1nnc(-c2cc3ccccc3nc2OC)o1` [Compound 371], the IC50 at Recombinant human HDAC1 is 86.7 nM; on HDAC6, 4660 nM.

Turning to `CCC(=O)CCCCC[C@H](NC(=O)[C@H]1CC[C@@]2(CC1)OC(=O)c1ccncc12)c1ncc(-c2ccccc2)[nH]1` [Compound 372], the IC50 on Recombinant human HDAC1 stood at 92.5 nM; at HDAC6, 10200 nM.

For the molecule `CCC(=O)CCCCC[C@H](NC(=O)[C@H]1CC[C@@]2(CC1)OC(=O)c1cnccc12)c1ncc(-c2ccccc2)[nH]1` [Compound 373], the IC50 on Recombinant human HDAC1 was 95.6 nM; against HDAC6 it was 10100 nM.

For `CCC(=O)CCCCC[C@H](NC(=O)[C@H]1CC[C@@]2(CC1)OC(=O)c1ncccc12)c1ncc(-c2ccccc2)[nH]1` [Compound 374], the results for the IC50 at Recombinant human HDAC1 and against HDAC6 were 92.7 nM and 11200 nM, respectively.

As for `CCC(=O)CCCCC[C@H](NC(=O)[C@H]1CC[C@@]2(CC1)OC(=O)c1cccnc12)c1ncc(-c2ccccc2)[nH]1` [Compound 375], the IC50 on Recombinant human HDAC1 was 117 nM; at HDAC6, 10200 nM.

In the case of `CCC(=O)CCCCC[C@H](NC(=O)[C@H]1CC[C@]2(CC1)OC(=O)c1ccncc12)c1ncc(-c2ccccc2)[nH]1` [Compound 376], the IC50 was determined as 49.9 nM at Recombinant human HDAC1 and 10800 nM against HDAC6.

`CCC(=O)CCCCC[C@H](NC(=O)[C@H]1CC[C@]2(CC1)OC(=O)c1cccnc12)c1ncc(-c2ccccc2)[nH]1` [Compound 378]: the results for the half-inhibitory concentration (IC50) on Recombinant human HDAC1 and at HDAC6 were 46 nM and 10800 nM, respectively.

In the case of `CCC(=O)CCCCC[C@H](NC(=O)C1=NOC2(CCN(C(C)C)CC2)C1)c1ncc(-c2ccccc2)[nH]1` [Compound 379], the IC50 on Recombinant human HDAC1 is 21.9 nM; on HDAC6, 8590 nM.

As to `CCC(=O)CCCCC[C@H](NC(=O)C1=NOC2(CCN(C(C)=O)CC2)C1)c1ncc(-c2ccccc2)[nH]1` [Compound 380], the IC50 amounted to 69.8 nM at Recombinant human HDAC1 and 16200 nM against HDAC6.

In the case of `CCC(=O)CCCCC[C@H](NC(=O)C1=NOC2(CCN(C(=O)OC)CC2)C1)c1ncc(-c2ccccc2)[nH]1` [Compound 381], the IC50 worked out at 179 nM on Recombinant human HDAC1 and 32300 nM against HDAC6.

Regarding `CCC(=O)CCCCC[C@H](NC(=O)C1=NOC2(CCN(C)CC2)C1)c1ncc(-c2ccccc2)[nH]1` [Compound 382], the IC50 at Recombinant human HDAC1 is 32.9 nM; at HDAC6 it was 12100 nM.

In the case of `CCC(=O)CCCCC[C@H](NC(=O)C1=NOC2(CCN(S(C)(=O)=O)CC2)C1)c1ncc(-c2ccccc2)[nH]1` [Compound 383], the IC50 was determined as 96.5 nM at Recombinant human HDAC1 and 16100 nM against HDAC6.

`CCC(=O)CCCCC[C@H](NC(=O)CCN1C(=O)C(CC)=NC12CCOCC2)c1ncc(-c2ccccc2)[nH]1` [Compound 384]: the IC50 on Recombinant human HDAC1 is 37.3 nM; at HDAC6, 10300 nM.

With `CCC(=O)CCCCC[C@H](NC(=O)C1=NOC2(CCN(C)CC2)C1)c1ncc(-c2cc3ccc(=O)n(C)c3cc2F)o1` [Compound 386], the IC50 at Recombinant human HDAC1 was 7.82 nM; at HDAC6, above 900 nM.

On to `CCC(=O)CCCCC[C@H](NC(=O)C1=NOC2(CCN(CC3CC3)CC2)C1)c1ncc(-c2cc3ccc(=O)n(C)c3cc2F)o1` [Compound 387], for which the IC50 at Recombinant human HDAC1 was 25.8 nM; against HDAC6 it was above 900 nM.

`CCC(=O)CCCCC[C@H](NC(=O)[C@H]1CC12CCN(C)CC2)c1ncc(-c2cc3ocnc3cc2F)o1` [Compound 389]: the IC50 on Recombinant human HDAC1 was 21.4 nM; at HDAC6 it was above 900 nM.

Turning to `CCC(=O)CCCCC[C@H](NC(=O)C1=NOC2(CCN(C)CC2)C1)c1ncc(-c2ccc(Cl)cc2OC)o1` [Compound 390], the concentration for half-maximal inhibition (IC50) at Recombinant human HDAC1 amounted to 18 nM; against HDAC6 it was 309 nM.

`CCC(=O)CCCCC[C@H](NC(=O)C1=NOC2(CCN(C)CC2)C1)c1ncc(-c2ccc(-c3ccccn3)cc2OC)o1` [Compound 391]: the IC50 was 9.57 nM on Recombinant human HDAC1 and above 900 nM against HDAC6.

Consider `CCC(=O)CCCCC[C@H](NC(=O)[C@H]1CC12CCN(CC1CC1)CC2)c1ncc(-c2ccc3nc(C)ccc3c2)[nH]1` [Compound 393], for which the IC50 at Recombinant human HDAC1 is 0.05 nM; on HDAC6, 325 nM.

`CCC(=O)CCCCC[C@H](NC(=O)C1=NOC2(CCN(C)CC2)C1)c1ncc(-c2ccc(-c3ccncc3)cc2OC)o1` [Compound 395]: the values for the IC50 at Recombinant human HDAC1 and at HDAC6 were 2.42 nM and above 900 nM, respectively.

Consider `CCC(=O)CCCCC[C@H](NC(=O)C1=NOC2(CCN(C)CC2)C1)c1ncc(-c2cc3ccc(N(C)C)nc3cc2OC)o1` [Compound 397], for which the IC50 at Recombinant human HDAC1 is 1.36 nM; at HDAC6, above 900 nM.

For `CCC(=O)CCCCC[C@H](NCC1CC1)c1ncc(-c2cc3ccc(C)nc3cc2OC)[nH]1` [Compound 398, (S)-9-((cyclopropylmethyl)amino)-9-(5-(7-methoxy-2-methylquinolin-6-yl)-1H-imidazol-2-yl)nonan-3-one], the IC50 on Recombinant human HDAC1 is 186 nM; against HDAC6 it was above 900 nM.

Regarding `CCC(=O)CCCCC[C@H](NC(=O)[C@H]1CC12CCN(CC1CC1)CC2)c1ncc(-c2cc3ccc(=O)n(C)c3cc2F)o1` [Compound 400], the IC50 at Recombinant human HDAC1 was 6.41 nM; at HDAC6, above 900 nM.

In the case of `CCC(=O)CCCCC[C@H](NCC1CN(C)C1)c1ncc(-c2cc3ccc(C)nc3cc2OC)o1` [Compound 401, (9S)-9-[5-(7-methoxy-2-methylquinolin-6-yl)-1,3-oxazol-2-yl]-9-{[(1-methylazetidin-3-yl)methyl]amino}nonan-3-one], the IC50 was 32.1 nM at Recombinant human HDAC1 and above 900 nM on HDAC6.

Regarding `CCN[C@@H](CCCCCC(=O)CC)c1ncc(-c2cc3ccc(C)nc3cc2OC)[nH]1` [Compound 403], the IC50 is 248 nM at Recombinant human HDAC1 and above 900 nM against HDAC6.

As to `CCC(=O)CCCCC[C@H](NCc1ccncc1)c1ncc(-c2cc3ccc(C)nc3cc2OC)[nH]1` [Compound 404], the IC50 on Recombinant human HDAC1 is 367 nM; against HDAC6, above 900 nM.
